Experimental data: the supplement of paper PMC11061612

Columns and labels:
Assay in all cases: combination Emax (second highest fraction inhibited in the dose matrix, 72 h); higher = more inhibition; extreme values may be limits of the assay
42-MG-BA (Glioblastoma) = system: 42-MG-BA (Glioblastoma)
Procedure, shortened: (§1)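 Bliss excess equals the observed combination effect minus the expected value EA + EB − EA·EB, where EA and EB are the effects of each agent alone. Combination Emax is the second-highest inhibition within the matrix. Inhibition was scaled from CellTiter-Glo 2.0 luminescence, with 0 set by vehicle wells and 1 by blank wells, after 72 hours of two-drug dosing of cells plated in 1536-well plates.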

[1] = system: HT-1376 (Bladder Carcinoma)
Procedure, shortened: as §1

[2] = system: Daoy (Other Solid Carcinomas)
Procedure, shortened: as §1

[3] = system: Hs-578-T (Breast Carcinoma)
Procedure, shortened: as §1

NB10 (Neuroblastoma) = system: NB10 (Neuroblastoma)
Procedure, shortened: as §1

[4] = system: CCRF-CEM (T-Lymphoblastic Leukemia)
Procedure, shortened: as §1

T98G (Glioblastoma) = system: T98G (Glioblastoma)
Procedure, shortened: as §1

[5] = system: KURAMOCHI (Ovarian Carcinoma)
Procedure, shortened: as §1

[6] = system: UM-UC-3 (Bladder Carcinoma)
Procedure, shortened: as §1

[7] = system: NCI-H2085 (Non-Small Cell Lung Carcinoma)
Procedure, shortened: as §1

[8] = system: SK-ES-1 (Ewing's Sarcoma)
Procedure, shortened: as §1

HOS (Osteosarcoma) = system: HOS (Osteosarcoma)
Procedure, shortened: as §1

[9] = system: TCCSUP (Bladder Carcinoma)
Procedure, shortened: as §1

[10] = system: RO82-W-1 (Thyroid Gland Carcinoma)
Procedure, shortened: as §1

ES4 (Ewing's Sarcoma) = system: ES4 (Ewing's Sarcoma)
Procedure, shortened: as §1

[11] = system: HCC-78 (Lung Adenocarcinoma)
Procedure, shortened: as §1

[12] = system: ME-1 (Acute Myeloid Leukemia)
Procedure, shortened: as §1

[13] = system: DEL (T-Cell Non-Hodgkin's Lymphoma)
Procedure, shortened: as §1

[14] = system: HO-1-N-1 (Oral Cavity Carcinoma)
Procedure, shortened: as §1

[15] = system: Ramos-2G6-4C10 (Burkitt's Lymphoma)
Procedure, shortened: as §1

Row | Structure (SMILES) | combination Emax (42-MG-BA (Glioblastoma)) | combination Emax [1] | combination Emax [2] | combination Emax [3] | combination Emax (NB10 (Neuroblastoma)) | combination Emax [4] | combination Emax (T98G (Glioblastoma)) | combination Emax [5] | combination Emax [6] | combination Emax [7] | combination Emax [8] | combination Emax (HOS (Osteosarcoma)) | combination Emax [9] | combination Emax [10] | combination Emax (ES4 (Ewing's Sarcoma)) | combination Emax [11] | combination Emax [12] | combination Emax [13] | combination Emax [14] | combination Emax [15]
1 | COc1nnc2ccc(N3CCC(c4ccc(OCCN5CCN(C)C(=O)[C@H]5C)cc4)CC3)nn12 [AZD5153] + C[C@@H]1COCCN1C2=NC(=NC(=C2)C3(CC3)[S@](=N)(=O)C)C4=C5C=CNC5=NC=C4 [AZD6738] (first compound max 1 µM, 7x7, partner max 10 µM) | 0.793 | 0.481 | 0.835 | 0.8 | 0.903 | 0.993 | 0.798 | 0.826 | 0.621 | 0.653 | 0.929 | 0.704 | 0.566 | 0.398 | 0.942 | 0.517 | 0.651 | 1 | 0.795 | 0.913
2 | COc1nnc2ccc(N3CCC(c4ccc(OCCN5CCN(C)C(=O)[C@H]5C)cc4)CC3)nn12 [AZD5153] + Cc1c2c(nn1C)CSCc1cc(n(C)n1)CSc1cc(c3ccccc3c1)OCCCc1c(C(=O)O)n(C)c3c-2c(Cl)ccc13 [AZD5991] (first compound max 1 µM, 7x7, partner max 1 µM) | 0.883 | 0.264 | 0.801 | 0.896 | 0.651 | 0.858 | 0.459 | 0.927 | 0.281 | 0.64 | 0.948 | 0.879 | 0.32 | 0.411 | 0.63 | 0.522 | 0.793 | 1 | 0.991 | 1
3 | COc1nnc2ccc(N3CCC(c4ccc(OCCN5CCN(C)C(=O)[C@H]5C)cc4)CC3)nn12 [AZD5153] + Cn1cnc2c(F)c(Nc3ccc(Br)cc3Cl)c(C(=O)NOCCO)cc21 [Selumetinib] (first compound max 1 µM, 7x7, partner max 10 µM) | 0.705 | 0.26 | 0.598 | 0.736 | 0.785 | 0.638 | 0.476 | 0.707 | 0.527 | 0.563 | 0.579 | 0.544 | 0.337 | 0.456 | 0.658 | 0.451 | 0.583 | 0.923 | 0.773 | 0.56
4 | Cc1c2c(nn1C)CSCc1cc(n(C)n1)CSc1cc(c3ccccc3c1)OCCCc1c(C(=O)O)n(C)c3c-2c(Cl)ccc13 [AZD5991] + C1CN(CCC1(C(=O)N[C@@H](CCO)C2=CC=C(C=C2)Cl)N)C3=NC=NC4=C3C=CN4 [Capivasertib] (first compound max 1 µM, 7x7, partner max 3 µM) | 1 | 0.146 | 0.345 | 0.747 | 0.194 | 0.637 | 0.3 | 0.307 | 0.216 | 0.262 | 0.854 | 0.242 | 0.25 | 0.246 | 0.19 | 0.228 | 0.772 | 1 | 0.944 | 1
5 | Cc1c2c(nn1C)CSCc1cc(n(C)n1)CSc1cc(c3ccccc3c1)OCCCc1c(C(=O)O)n(C)c3c-2c(Cl)ccc13 [AZD5991] + C=CCn1c(=O)c2cnc(Nc3ccc(N4CCN(C)CC4)cc3)nc2n1-c1cccc(C(C)(C)O)n1 [AZD1775] (first compound max 1 µM, partner max 1 µM) | 0.986 | 0.459 | 0.979 | 0.874 | 0.6 | 1 | 0.674 | 0.796 | 0.271 | 0.626 | 0.985 | 0.432 | 0.596 | 0.506 | 0.502 | 0.331 | 0.793 | 1 | 0.812 | 1
6 | Cc1c2c(nn1C)CSCc1cc(n(C)n1)CSc1cc(c3ccccc3c1)OCCCc1c(C(=O)O)n(C)c3c-2c(Cl)ccc13 [AZD5991] + CC1(C)CCC(CN2CCN(c3ccc(C(=O)NS(=O)(=O)c4ccc(NCC5CCOCC5)c([N+](=O)[O-])c4)c(Oc4cnc5[nH]ccc5c4)c3)CC2)=C(c2ccc(Cl)cc2)C1 [Venetoclax] (first compound max 1 µM, 7x7, partner max 1 µM) | 0.963 | 0.142 | 0.425 | 0.774 | 0.481 | 0.787 | 0.283 | 0.501 | 0.171 | 0.783 | 1 | 0.509 | 0.157 | 0.255 | 0.147 | 0.158 | 1 | 1 | 0.979 | 0.985
7 | Cc1c2c(nn1C)CSCc1cc(n(C)n1)CSc1cc(c3ccccc3c1)OCCCc1c(C(=O)O)n(C)c3c-2c(Cl)ccc13 [AZD5991] + CCN(CCO)CCCOc1ccc2c(Nc3cc(CC(=O)Nc4cccc(F)c4)[nH]n3)ncnc2c1 [AZD2811] (first compound max 1 µM, 7x7, partner max 1 µM) | 1 | 0.243 | 0.505 | 0.81 | 0.405 | 0.999 | 0.585 | 0.376 | 0.266 | 0.863 | 1 | 0.238 | 0.321 | 0.274 | 0.219 | 0.31 | 0.733 | 1 | 0.993 | 1
8 | Cc1c2c(nn1C)CSCc1cc(n(C)n1)CSc1cc(c3ccccc3c1)OCCCc1c(C(=O)O)n(C)c3c-2c(Cl)ccc13 [AZD5991] + CN(C)CCCOc1ccc(-c2ccc3ncc4c(c3c2)n(C2CCOCC2)c(=O)n4C)cn1 [AZD0156] (first compound max 1 µM, 7x7, partner max 1 µM) | 0.986 | 0.196 | 0.223 | 0.585 | 0.273 | 0.48 | 0.283 | 0.359 | 0.211 | 0.219 | 0.817 | 0.278 | 0.162 | 0.265 | 0.238 | 0.211 | 0.803 | 1 | 0.771 | 0.988
9 | Cc1c2c(nn1C)CSCc1cc(n(C)n1)CSc1cc(c3ccccc3c1)OCCCc1c(C(=O)O)n(C)c3c-2c(Cl)ccc13 [AZD5991] + C[C@@H]1COCCN1C2=NC(=NC(=C2)C3(CC3)[S@](=N)(=O)C)C4=C5C=CNC5=NC=C4 [AZD6738] (first compound max 1 µM, 7x7, partner max 10 µM) | 1 | 0.455 | 0.945 | 0.891 | 0.86 | 1 | 0.875 | 0.634 | 0.401 | 0.52 | 1 | 0.789 | 0.648 | 0.525 | 0.885 | 0.544 | 0.798 | 1 | 0.928 | 1
10 | Cc1c2c(nn1C)CSCc1cc(n(C)n1)CSc1cc(c3ccccc3c1)OCCCc1c(C(=O)O)n(C)c3c-2c(Cl)ccc13 [AZD5991] + C[C@@H](Nc1cc(F)cc(F)c1)c1cc(C(=O)N(C)C)cc2c(=O)cc(N3CCOCC3)oc12 [AZD8186] (first compound max 1 µM, 7x7, partner max 3 µM) | 0.963 | 0.225 | 0.391 | 0.738 | 0.179 | 0.27 | 0.501 | 0.404 | 0.311 | 0.691 | 0.866 | 0.174 | 0.227 | 0.367 | 0.305 | 0.413 | 0.787 | 1 | 0.933 | 0.959
11 | Cc1c2c(nn1C)CSCc1cc(n(C)n1)CSc1cc(c3ccccc3c1)OCCCc1c(C(=O)O)n(C)c3c-2c(Cl)ccc13 [AZD5991] + Cc1cc2ncnn2cc1Nc1ncc2c(n1)n(C1CCOCC1)c(=O)n2C [AZD7648] (first compound max 1 µM, 7x7, partner max 10 µM) | 0.988 | 0.221 | 0.244 | 0.63 | 0.258 | 0.52 | 0.361 | 0.331 | 0.226 | 0.244 | 0.813 | 0.287 | 0.25 | 0.376 | 0.229 | 0.339 | 0.755 | 1 | 0.794 | 1
12 | C[C@@H]1COCCN1c1cc(C2([S@](C)(=N)=O)CC2)nc(-c2ccnc3[nH]ccc23)n1 [AZD6738] + O=C(c1cc(Cc2n[nH]c(=O)c3ccccc23)ccc1F)N1CCN(C(=O)C2CC2)CC1 [Olaparib] (first compound max 10 µM, 7x7, partner max 10 µM) | 0.576 | 0.456 | 0.867 | 0.898 | 0.811 | 1 | 0.817 | 0.549 | 0.584 | 0.43 | 0.933 | 0.685 | 0.646 | 0.353 | 0.817 | 0.638 | 0.538 | 0.993 | 0.839 | 0.779
13 | Cc1cc2ncnn2cc1Nc1ncc2c(n1)n(C1CCOCC1)c(=O)n2C [AZD7648] + C=CCn1c(=O)c2cnc(Nc3ccc(N4CCN(C)CC4)cc3)nc2n1-c1cccc(C(C)(C)O)n1 [AZD1775] (first compound max 10 µM, partner max 1 µM) | 0.439 | 0.408 | 0.869 | 0.77 | 0.594 | 1 | 0.711 | 0.664 | 0.287 | 0.512 | 0.946 | 0.369 | 0.375 | 0.46 | 0.441 | 0.432 | 0.355 | 1 | 0.532 | 0.998
